Source: US10544106B2, “Certain chemical entities, compositions, and methods” (NeuPharma, Inc., priority 2016, dated 2020)

target: BTK (Homo sapiens (Human), UniProt Q06187); assay: Z'-LYTE kinase inhibition assay against BTK; assay type: biochemical; conditions: compound at 100 nM; ATP concentration at Km
Protocol: Inhibitory activities of compounds against BTK, EGFR T790M, EGFR L858R, and EGFR L858R/T790M were measured using Z′-LYTE® Method from Life Technologies as briefly described in the following.
Test Compounds are screened in 1% DMSO (final) in the well. For 10 point titrations, 3-fold serial dilutions are conducted from the starting concentration. All ATP Solutions are diluted to a 4× working concentration in Kinase Buffer (50 mM HEPES pH 7.5, 0.01% BRIJ-35, 10 mM MgCl2, 1 mM EGTA). Peptide/Kinase Mixtures are diluted to a 2× working concentration in the appropriate Kinase Buffers as described below. • (i) Peptide/Kinase Mixtures for measurement of EGFR (ErbB1) L858R: • The 2×EGFR (ErbB1) L858R/Tyr 04 mixture is prepared in 50 mM HEPES pH 7.5, 0.01% BRIJ-35, 10 mM MgCl2, 4 mM MnCl2. 1 mM EGTA, 2 mM DTT. The final 10 μL Kinase Reaction consists of 0.2-1.68 ng EGFR (ErbB1) L858R and 2 μM Tyr 04 in 50 mM HEPES pH 7.5, 0.01% BRIJ-35, 10 mM MgCl2, 2 mM MnCl2, 1 mM EGTA, 1 mM DTT. After the 1 hour Kinase Reaction incubation, 5 μL of a 1:64 dilution of Development Reagent B is added. • (ii) Peptide/Kinase Mixtures for measurement of EGFR (ErbB1) T790M: The 2×EGFR (ErbB1) T790M/Tyr 04 mixture is prepared in 50 mM HEPES pH 6.5, 0.01% BRIJ-35, 10 mM MgCl2, 1 mM EGTA, 0.02% NaN3. The final 10 μL Kinase Reaction consists of 3.9-30.2 ng EGFR (ErbB1) T790M and 2 μM Tyr 04 in 50 mM HEPES pH 7.0, 0.01% BRIJ-35, 10 mM MgCl2, 1 mM EGTA, 0.01% NaN3. After the 1 hour Kinase Reaction incubation, 5 μL of a 1:64 dilution of Development Reagent B is added. • (iii) Peptide/Kinase Mixtures for measurement of EGFR (ErbB1) L858R/T790M: The 2×EGFR (ErbB1) T790M L858R/Tyr 04 mixture is prepared in 50 mM HEPES pH 6.5, 0.01% BRIJ-35, 10 mM MgCl2, 1 mM EGTA, 0.02% NaN3. The final 10 μL Kinase Reaction consists of 0.38-4.22 ng EGFR (ErbB1) T790M L858R and 2 μM Tyr 04 in 50 mM HEPES pH 7.0, 0.01% BRIJ-35, 10 mM MgCl2, 1 mM EGTA, 0.01% NaN3. After the 1 hour Kinase Reaction incubation, 5 μL of a 1:64 dilution of Development Reagent B is added. • (iv) Peptide/Kinase Mixtures for measurement of BTK: The 2×BTK/Tyr 01 mixture is prepared in 50 mM HEPES pH 7.5, 0.010/BRIJ-35, 10 mM MgCl2, 1 mM EGTA. The final 10 μL Kinase Reaction consists of 1.04-10.4 ng BTK and 2 μM Tyr 01 in 50 mM HEPES pH 7.5, 0.01% BRIJ-35, 10 mM MgCl2, 1 mM EGTA. After the 1 hour Kinase Reaction incubation, 5 μL of a 1:256 dilution of Development Reagent B is added.
Reaction starts by 30-second shaking of mixture consisting of 2.5 μL 4× test compound, 5 μL 2× kinase reaction mixture and 2.5 μL 4×ATP Solution on Bar-coded Corning, low volume NBS, black 384-well plate (Corning Cat. #3676). Then the mixture is incubated for 60-minute at room temperature for the kinase reaction, followed by addition of 5 μL of a 1:1024 dilution of development reagent A and 30-second plate shake. The mixture is then incubated for another 60-minute at room temperature for development reaction. Finally fluorescence is read by plate reader.
The Z′-LYTE assay was carried out with ATP concentration at Km. The scale utilized in Tables 2-6 is as follows: ++ more than 50% inhibition and + less than 50% inhibition.
To determine IC50 of a compound against a kinase, a series of concentrations of the compound were tested for the inhibition. IC50 was calculated by plotting the concentration of compound vs the percentage of inhibition in treated wells using GraphPad Prism 5. […] The scale utilized in Table 7 is as follows: ++ less than 100 nM and + greater than 100 nM.

Chain of BTK (Q06187 whole entry): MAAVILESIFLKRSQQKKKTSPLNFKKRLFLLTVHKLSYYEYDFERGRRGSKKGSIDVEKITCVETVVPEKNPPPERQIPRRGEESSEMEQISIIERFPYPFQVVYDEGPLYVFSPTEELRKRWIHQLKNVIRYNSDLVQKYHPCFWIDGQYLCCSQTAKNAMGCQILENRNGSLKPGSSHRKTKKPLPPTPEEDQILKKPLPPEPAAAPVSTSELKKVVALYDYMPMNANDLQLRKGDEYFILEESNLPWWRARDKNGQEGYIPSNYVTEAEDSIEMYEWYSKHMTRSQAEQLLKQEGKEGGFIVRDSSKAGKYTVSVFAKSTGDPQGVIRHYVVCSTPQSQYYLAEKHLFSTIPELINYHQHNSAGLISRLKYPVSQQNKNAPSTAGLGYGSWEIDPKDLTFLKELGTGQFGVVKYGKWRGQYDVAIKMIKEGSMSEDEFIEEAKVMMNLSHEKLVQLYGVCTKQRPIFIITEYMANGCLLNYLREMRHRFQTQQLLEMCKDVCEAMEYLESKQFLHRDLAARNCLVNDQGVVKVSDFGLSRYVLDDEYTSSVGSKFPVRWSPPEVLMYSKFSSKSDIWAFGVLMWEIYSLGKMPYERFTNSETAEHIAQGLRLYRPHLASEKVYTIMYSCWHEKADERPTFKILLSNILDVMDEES

Q: Which inhibition at 0.1 µM does the source give for `C=CC(=O)N1CCCC(c2cc(-c3ccc(Oc4ccccc4)cc3)cc3c(N)ncnc23)C1` (stereo not drawn) [C030, 1-(3-(4-amino-6-(4-phenoxyphenyl)quinazolin-8-yl)piperidin-1-yl)prop-2-en-1-one] here?
A: Its inhibition at 0.1 µM is less than 50%.

Q: How did the inhibition at 0.1 µM turn out when `C=CC(=O)N1CCCC(c2cc(-c3cccnc3)cc3cncnc23)C1` (stereo not drawn) [C031, 1-(3-(6-(pyridin-3-yl)quinazolin-8-yl)piperidin-1-yl)prop-2-en-1-one] was run?
A: The inhibition at 0.1 µM was less than 50%.

Q: For `C=CC(=O)N1CCC(n2c(-c3ccccc3F)nc3cncnc32)C1` (stereo not drawn) [C032, 1-(3-(8-(2-fluorophenyl)-9H-purin-9-yl)pyrrolidin-1-yl)prop-2-en-1-one], which inhibition at 0.1 µM is on record?
A: The inhibition at 0.1 µM was less than 50%.

Q: For `C=CC(=O)N1CCC(n2c(-c3ccccc3Cl)nc3cncnc32)C1` (stereo not drawn) [C033, 1-(3-(8-(2-chlorophenyl)-9H-purin-9-yl)pyrrolidin-1-yl)prop-2-en-1-one], which inhibition at 0.1 µM is on record?
A: The inhibition at 0.1 µM was less than 50%.

Q: With `C=CC(=O)N1CCCC(c2cc(-c3ccccc3)cc3c(N)ncnc23)C1` (stereo not drawn) [C034, 1-(3-(4-amino-6-phenylquinazolin-8-yl)piperidin-1-yl)prop-2-en-1-one] as the compound, how does the inhibition at 0.1 µM read?
A: The inhibition at 0.1 µM was less than 50%.

Q: Which inhibition at 0.1 µM does the source give for `C=CC(=O)Nc1cccc(-c2cc(-c3ccc(C(=O)Nc4cc(C)ccn4)cc3)cc3cnc(N)nc23)c1` [C036, 4-(8-(3-acrylamidophenyl)-2-aminoquinazolin-6-yl)-N-(4-methylpyridin-2-yl)benzamide] here?
A: Its inhibition at 0.1 µM is less than 50%.

Q: Which inhibition at 0.1 µM does the source give for `C=CC(=O)N1CCCC(c2ccc(-c3ccc(C(=O)Nc4ccccn4)cc3)c3cncnc23)C1` (stereo not drawn) [C037, 4-(8-(1-acryloylpiperidin-3-yl)quinazolin-5-yl)-N-(pyridin-2-yl)benzamide] here?
A: The inhibition at 0.1 µM was less than 50%.

Q: For `C=CC(=O)Nc1cccc(-c2cc(-c3ccc(C)nc3)cc3cnc(N)nc23)c1` [C038, N-(3-(2-amino-6-(6-methylpyridin-3-yl)quinazolin-8-yl)phenyl)acrylamide], which inhibition at 0.1 µM is on record?
A: The inhibition at 0.1 µM was greater than 50%.

Q: For `C=CC(=O)Nc1cccc(-c2ccc(-c3ccc(C(=O)Nc4ccccn4)cc3)c3cncnc23)c1` [C039, 4-(8-(3-acrylamidophenyl)quinazolin-5-yl)-N-(pyridin-2-yl)benzamide], which inhibition at 0.1 µM is on record?
A: The inhibition at 0.1 µM was less than 50%.

Q: `C=CC(=O)Nc1cccc(-c2cc(-c3ccc(C(=O)Nc4ccccn4)cc3)cc3cnc(N)nc23)c1` [C040, 4-(8-(3-acrylamidophenyl)-2-aminoquinazolin-6-yl)-N-(pyridin-2-yl)benzamide] was tested. Which inhibition at 0.1 µM did it give?
A: Its inhibition at 0.1 µM is less than 50%.

Q: `C=CC(=O)Nc1cccc(-c2cc(-c3ccc(C(=O)Nc4cc(C)ccn4)cc3)cc3cncnc23)c1` [C041, 4-(8-(3-acrylamidophenyl)quinazolin-6-yl)-N-(4-methylpyridin-2-yl)benzamide] was tested. Which inhibition at 0.1 µM did it give?
A: Its inhibition at 0.1 µM is greater than 50%.

Q: For `C=CC(=O)N1CCC(c2cc(-c3cccnc3)cc3cncnc23)C1` (stereo not drawn) [C043, 1-(3-(6-(pyridin-3-yl)quinazolin-8-yl)pyrrolidin-1-yl)prop-2-en-1-one], which inhibition at 0.1 µM is on record?
A: Its inhibition at 0.1 µM is less than 50%.

Q: With `C=CC(=O)Nc1cccc(-c2cc(-c3ccc(C(=O)Nc4ccccn4)cc3)n3cnccc23)c1` [C044, 4-(5-(3-acrylamidophenyl)pyrrolo[1,2-c]pyrimidin-7-yl)-N-(pyridin-2-yl)benzamide] as the compound, how does the inhibition at 0.1 µM read?
A: The inhibition at 0.1 µM was less than 50%.

Q: With `C=CC(=O)N1CCCC(c2cc(-c3cccnc3)cc3cnc(N)nc23)C1` (stereo not drawn) [C045, 1-(3-(2-amino-6-(pyridin-3-yl)quinazolin-8-yl)piperidin-1-yl)prop-2-en-1-one] as the compound, how does the inhibition at 0.1 µM read?
A: The inhibition at 0.1 µM was less than 50%.

Q: Which inhibition at 0.1 µM does the source give for `C=CC(=O)N1CCC(c2cc(-c3ccc(C(=O)Nc4ccccn4)cc3)n3cnccc23)C1` (stereo not drawn) [C046, 4-(5-(1-acryloylpyrrolidin-3-yl)pyrrolo[1,2-c]pyrimidin-7-yl)-N-(pyridin-2-yl)benzamide] here?
A: The inhibition at 0.1 µM was less than 50%.

Q: How did the inhibition at 0.1 µM turn out when `C=CC(=O)N1CCC(c2cc(-c3ccccc3)cc3cncnc23)C1` (stereo not drawn) [C047, 1-(3-(6-phenylquinazolin-8-yl)pyrrolidin-1-yl)prop-2-en-1-one] was run?
A: Its inhibition at 0.1 µM is greater than 50%.

Q: `C=CC(=O)N1CCC(c2cc(-c3ccc(Oc4ccccc4)cc3)cc3cncnc23)C1` (stereo not drawn) [C048, 1-(3-(6-(4-phenoxyphenyl)quinazolin-8-yl)pyrrolidin-1-yl)prop-2-en-1-one] was tested. Which inhibition at 0.1 µM did it give?
A: Its inhibition at 0.1 µM is greater than 50%.

Q: `C=CC(=O)N1CCC(c2ccc(-c3ccc(C(=O)Nc4ccccn4)cc3)c3cncnc23)C1` (stereo not drawn) [C049, 4-(8-(1-acryloylpyrrolidin-3-yl)quinazolin-5-yl)-N-(pyridin-2-yl)benzamide] was tested. Which inhibition at 0.1 µM did it give?
A: The inhibition at 0.1 µM was less than 50%.

Q: How did the inhibition at 0.1 µM turn out when `C=CC(=O)Nc1cccc(-c2cc(-c3ccc(C(=O)Nc4ccccc4)nc3)cc3cncnc23)c1` [C050, 5-(8-(3-acrylamidophenyl)quinazolin-6-yl)-N-phenylpicolinamide] was run?
A: Its inhibition at 0.1 µM is greater than 50%.

Q: For `C=CC(=O)Nc1cccc(-c2cc(-c3ccc(C(=O)Nc4ccccc4)cc3)cc3cncnc23)c1` [C053, 4-(8-(3-acrylamidophenyl)quinazolin-6-yl)-N-phenylbenzamide], which inhibition at 0.1 µM is on record?
A: Its inhibition at 0.1 µM is greater than 50%.

Q: With `C=CC(=O)N1CCC(c2cc(-c3ccc(C(=O)Nc4ccccc4)cc3)n3cnccc23)C1` (stereo not drawn) [C054, 4-(5-(1-acryloylpyrrolidin-3-yl)pyrrolo[1,2-c]pyrimidin-7-yl)-N-phenylbenzamide] as the compound, how does the inhibition at 0.1 µM read?
A: The inhibition at 0.1 µM was less than 50%.

Q: `C=CC(=O)Nc1cccc(-c2cc(-c3cncc(C(F)(F)F)c3)cc3cncnc23)c1` [C055, N-(3-(6-(5-(trifluoromethyl)pyridin-3-yl)quinazolin-8-yl)phenyl)acrylamide] was tested. Which inhibition at 0.1 µM did it give?
A: The inhibition at 0.1 µM was greater than 50%.

Q: For `C=CC(=O)N1CCC(c2ccc(-c3ccc(C(=O)Nc4ccccn4)cc3)c3c(N)ncnc23)C1` (stereo not drawn) [C056, 4-(8-(1-acryloylpyrrolidin-3-yl)-4-amino-quinazolin-5-yl)-(N-pyridin-2-yl)benzamide], which inhibition at 0.1 µM is on record?
A: The inhibition at 0.1 µM was less than 50%.

Q: For `C=CC(=O)Nc1cccc(-c2cc(-c3ccc(Oc4ccccc4)cc3)n3cnccc23)c1` [C057, N-(3-(7-(4-phenoxyphenyl)pyrrolo[1,2-c]pyrimidin-5-yl)phenyl)acrylamide], which inhibition at 0.1 µM is on record?
A: Its inhibition at 0.1 µM is less than 50%.

Q: Which inhibition at 0.1 µM does the source give for `C=CC(=O)N1CCC(c2cc(-c3ccc(C(=O)Nc4cccc(C(F)(F)F)c4)cc3)n3cnccc23)C1` (stereo not drawn) [C058, 4-(5-(1-acryloylpyrrolidin-3-yl)pyrrolo[1,2-c]pyrimidin-7-yl)-N-(3-(trifluoro-methyl)phenyl)benzamide] here?
A: The inhibition at 0.1 µM was less than 50%.

Q: With `C=CC(=O)Nc1cccc(-c2cc(-c3ccc(C(=O)Nc4ccccc4)nc3)cc3cnc(N)nc23)c1` [C059, 5-(8-(3-acrylamidophenyl)-2-aminoquinazolin-6-yl)-N-phenylpicolinamide] as the compound, how does the inhibition at 0.1 µM read?
A: Its inhibition at 0.1 µM is less than 50%.

Q: `C=CC(=O)N1CCC(c2cc(-c3ccc(C(=O)Nc4ccccc4)nc3)cc3cncnc23)C1` (stereo not drawn) [C060, 5-(8-(1-acryloylpyrrolidin-3-yl)quinazolin-6-yl)-N-phenylpicolinamide] was tested. Which inhibition at 0.1 µM did it give?
A: The inhibition at 0.1 µM was less than 50%.

Q: With `C=CC(=O)Nc1cccc(-c2cc(-c3ccc(Oc4ccccc4)nc3)cc3cncnc23)c1` [C061, N-(3-(6-(6-phenoxypyridin-3-yl)quinazolin-8-yl)phenyl)acrylamide] as the compound, how does the inhibition at 0.1 µM read?
A: Its inhibition at 0.1 µM is greater than 50%.

Q: Which inhibition at 0.1 µM does the source give for `C=CC(=O)N1CCC(c2cc(-c3ccc(C(=O)Nc4ccccc4)cc3)cc3cncnc23)C1` (stereo not drawn) [C062, 4-(8-(1-acryloylpyrrolidin-3-yl)quinazolin-6-yl)-N-phenylbenzamide] here?
A: Its inhibition at 0.1 µM is less than 50%.

same assay, conditions: series of concentrations; GraphPad Prism 5

Q: Which IC50 does the source give for `C=CC(=O)Nc1cccc(-c2cc(-c3ccc(C)nc3)cc3cnc(N)nc23)c1` [C038, N-(3-(2-amino-6-(6-methylpyridin-3-yl)quinazolin-8-yl)phenyl)acrylamide] here?
A: The IC50 was less than 100 nM.

Q: Which IC50 does the source give for `C=CC(=O)N1CCC(c2cc(-c3ccc(Oc4ccccc4)cc3)cc3cncnc23)C1` (stereo not drawn) [C048, 1-(3-(6-(4-phenoxyphenyl)quinazolin-8-yl)pyrrolidin-1-yl)prop-2-en-1-one] here?
A: Its IC50 is less than 100 nM.

Q: With `C=CC(=O)Nc1cccc(-c2cc(-c3ccc(C(=O)Nc4ccccc4)cc3)cc3cncnc23)c1` [C053, 4-(8-(3-acrylamidophenyl)quinazolin-6-yl)-N-phenylbenzamide] as the compound, how does the IC50 read?
A: The IC50 was less than 100 nM.

Q: With `C=CC(=O)Nc1cccc(-c2cc(-c3ccc(Oc4ccccc4)nc3)cc3cncnc23)c1` [C061, N-(3-(6-(6-phenoxypyridin-3-yl)quinazolin-8-yl)phenyl)acrylamide] as the compound, how does the IC50 read?
A: Its IC50 is less than 100 nM.
